Entries after “also recorded” stand apart in the source; their conditions may differ. Blank lines part the entries; values can stand above or below the molecule they belong to.
Key:
ABA receptors = settings: cited from earlier work
[1] = Light sensitivity of the isolated product; assay type: physicochemical; settings: isolated solid, stored at −20° C.
Method: 142-(4-Azido-3,5-dicyclopropylphenyl)acetylaminolcyclohexanecarboxylic acid (2b; OPZ) To a solution of 2a (0.4 g, 1.01 mmoles, 1 equiv) in methanol/water 20 mL (1:1 v/v) was added lithium hydroxide (0.48 g, 20.2 mmoles, 20 equiv) and stirred at RT for 24 hr. After completion of the reaction (TLC), 2N HCl was added to the reaction mixture to precipitate the product as a white solid in near quantitative yields.

PYR1 = biological target: T1, PYR1 (Arabidopsis thaliana, UniProt O49686); test: ABA/receptor-mediated PP2C (ΔN-HAB1) phosphatase inhibition assay, PYR1; assay type: biochemical; settings: 100 nM PYR1, 25 nM ΔN-HAB1, 50 μM test compound, presence or absence of 5 μM ABA
T1 construct: made in house
T1 sequence (O49686 1-191): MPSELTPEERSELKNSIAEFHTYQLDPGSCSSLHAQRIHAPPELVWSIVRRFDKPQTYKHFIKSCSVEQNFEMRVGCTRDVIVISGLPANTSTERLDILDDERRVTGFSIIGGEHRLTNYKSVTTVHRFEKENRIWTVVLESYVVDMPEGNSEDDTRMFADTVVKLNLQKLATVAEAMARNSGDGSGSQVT
Method: (§1) Prior to synthesizing a library of OP-4-triazoles we conducted model click reactions to establish the feasibility and efficiency of using unpurified reaction mixtures directly in ABA receptor activation assays. These reactions were performed using OPZ and 4-ethynyltoluene as follows: we mixed OPZ (4 uL, 25 mM), alkyne (10 uL, 10 mM), sodium ascorbate (2 uL, 20 mM), BTTA (2 uL, 20 mM) and copper(II) sulphate (2 uL, 10 mM) in a 200 μL PCR tube and incubated the reaction at 37° C. for 48 hr. The reaction was monitored using TLC. In parallel, we ran a scaled-up synthesis of the triazole using similar ratios of the reagents and conditions, followed by precipitation of the product by the addition of 2N HCl and subsequent filtration to yield triazole T1 from 4-ethynyltoluene as white powder in quantitative yields. The purified triazole and unpurified click reaction were both tested in receptor-mediated phosphatase inhibition assays. […] Reactions were mixed and equilibrated for 20 minutes, substrate (4-methylumbelliferyl phosphate, 1 mM final) was added, and fluorescence data were collected (λ, exc=360 nm, λ emm=460 nm) using a Tecan Infinite F200 Pro fluorimeter. PP2C activity was calculated relative to solvent-only control wells (i.e. receptors and PP2C in assay buffer, but no test compound); compounds were tested in duplicate. […]

Arabidopsis (Col) seeds = test: Arabidopsis seed germination/greening assay in presence of ABA; assay type: in vivo; settings: for blocking of ABA inhibition of cotyledon greening: 30 μM pure compound
Method: To evaluate and prioritize the 204 hits obtained, we examined their effects on ABA-mediated inhibition of Arabidopsis seed germination and seedling growth. Arabidopsis seeds germinate and produce photosynthetically active cotyledons within 4-days post imbibition under illumination. Low concentrations of ABA (i.e. 1 μM) inhibit both germination and seedling growth, which is easily quantified by image analysis of green pixel counts. This provides a simple test for ABA antagonists, as they will block the inhibitory effects of ABA on greening. We used this assay to characterize the 204 hit molecules. Greening experiments were performed in 96-well polystyrene petri plates using surface sterilized Arabidopsis (Col) seeds plated on to 0.7% agar medium containing ½-X MS salts, 0.5% sucrose, 1 μM ABA, and one of the 204 click reactions products (˜10 μM). After 4 days of stratification (4° C.), the plates were transferred to a growth chamber under continuous illumination and photographed 4 days later. Each experiment included ABA (1 μM ABA, no antagonist) and mock (no ABA) controls.
The OP-4-triazoles 48E9T, 49C10T, 49 Å2T, 1H6T and 6E4T were tested in Arabidopsis greening assays at 30 μM in presence or absence of 1 μM ABA using conditions described in Example 7. […] (FIG. 7).
Purified triazoles were evaluated for their ability to block the effects of exogenous ABA in inhibiting seed germination/greening, performed as described in Example 7 using the purified OP-4-peptidotriazole hits, PanMe, AA1, and OPZ at concentrations ranging from 200 nM to 50000 nM in triplicate in presence of 1 μM ABA. Seed germination was scored at the lowest concentration tested, while greening data (normalized to mock control) was fitted to log(inhibitor) vs. response-(variable slope) model using non-linear regression to infer the EC50S, using GraphPad Prism 6.0.

[2] = test system: ABA receptors (PYR1, PYL4, PYL8); test: ABA receptor antagonism in vitro, statements not resolved by receptor (PYR1, PYL4, PYL8 panel); assay type: biochemical, Arabidopsis
Method: as §1

Arabidopsis seedlings = test: Primary root growth assay in presence of ABA; assay type: in vivo; settings: 5 and 10 μM, 10 μM ABA, 72 hrs
Method: Purified triazoles were evaluated for their ability to block effects of exogenous ABA in inhibiting primary root growth in Arabidopsis seedlings. Arabidopsis seeds were surface sterilized and plated on 0.7% agar medium containing 1⁄2-x MS salts, 0.5% sucrose. After 4 d of stratification at 4° C., transferred to dark chamber for 48 hrs. 5-6 seedlings at this stage were transferred to chemical plates containing purified triazole hits, PanMe, AA1 and OPZ at 5 and 10 μM in triplicate in presence of 10 μM ABA. Additional ABA controls (10 μM ABA, no antagonist) were also performed to assess effects of ABA on growth in absence of antagonist and transferred to dark chamber at RT for 72 hrs. Root lengths were measured and normalized to mock controls (FIG. 13).

MAPKKK18 gene expression = test: MAPKKK18::Luc luciferase reporter assay of ABA induced gene expression; assay type: in vivo, Arabidopsis thaliana; settings: 25 μM test chemical, 25 μM ABA, 6 hr
Method: ASV1E9T, PanMe, AA1 and OPZ were evaluated for their ability to block effects of exogenous ABA in inducing MAPKKK18 gene expression in Arabidopsis seedlings. Arabidopsis seeds (MAPKKKI8::Luc reporter line) were surface sterilized grown and plant growth liquid medium (½ Murashige and Skoog medium and 0.5% Sucrose) under 16 hour light and 8 hour dark conditions. 10 day old seedlings were transferred to new plant growth liquid medium with test chemical at 25 μM in presence of equimolar concentration of ABA and 100 μM luciferin. Luciferase assay image were taken by XYZ camera after 6 hr of treatments. The average luminescent intensity was quantified using ImageJ. Average intensity was calculated for quadruplicates and the error bars on graphs represent the standard error of mean. […] (FIG. 14)

Arabidopsis seeds = test: Thermoinhibition of seed germination assay; assay type: in vivo; settings: 0.2 μM to 50 μM, 37° C. in dark for 72 hrs
Description: Adverse environmental conditions during germination can affect dormancy in several species. For example, high temperatures during seed imbibition can prevent seed germination and induce a form of secondary seed dormancy in a process called thermoinhibition. Although thermoinhibtion is complex, elevated ABA levels induced by heat play a critical role, as evidenced by both the identification of ABA-deficient varieties of lettuce with reduced sensitivity to thermoinhibition and pharmacological experiments using fluridone, which disrupts ABA biosynthesis and thermoinhibition in many species. Chemicals that can counter this effect of heat stress could find use as seed treatments to ensure consistent germination under adverse conditions. […] 96 well polystyrene petri plates with surface sterilized Arabidopsis seeds plated on 0.7% agar medium containing ½-x MS salts, 0.5% sucrose, and doses spanning from 0.2 μM to 50 μM of different OP-4-peptidotriazoles, PanMe, AA1, OPZ and fluridone as a positive control. After 4 d of stratification at 4° C., the plates were transferred to an incubation chamber at 37° C. in dark for 72 hrs. After heat treatment, the plates were placed in dark in an incubation chamber at RT for 48 hrs and photographed.

Molecule: CCCCCCSC1=C(C)[C@](O)(/C=C/C(C)=C\C(=O)O)C(C)(C)CC1=O [AS6]
in vitro activity (literature antagonists) (ABA receptors): modest in vitro activity

light sensitivity [1]: extremely light sensitive
effect on PYR1 in PP2C activity assay (PYR1): weak partial PYR1 agonist/antagonist
Molecule: [N-]=[N+]=Nc1c(C2CC2)cc(CC(=O)NC2CCC(C(=O)O)CC2)cc1C1CC1 (stereo not shown) [OPZ, 142-(4-Azido-3,5-dicyclopropylphenyl)acetylaminolcyclohexanecarboxylic acid]

Molecule: COc1ccc(-c2nc3ccccc3n2Cc2cn(-c3c(C4CC4)cc(CC(=O)NC4(C(=O)O)CCCCC4)cc3C3CC3)nn2)cc1 [6E4T]
blocking of ABA inhibition of cotyledon greening (Arabidopsis (Col) seeds; 1 μM ABA): only weakly effective
receptor selectivity (pan vs selective antagonist) [2]: PYR1-selective antagonist

Molecule: Cc1cccc(C(=O)NCc2cn(-c3c(C4CC4)cc(CC(=O)NC4(C(=O)O)CCCCC4)cc3C3CC3)nn2)n1 [49C10T]
blocking of ABA inhibition of cotyledon greening (Arabidopsis (Col) seeds; 1 μM ABA): highly effective in blocking the effects of ABA

Molecule: CC1=C[C@@H](OCC#Cc2ccc(C)cc2)CC(C)(C)[C@@]1(O)/C=C/C(C)=C\C(=O)O [PanMe]
phytotoxicity (Arabidopsis (Col) seeds; 200 nM to 50000 nM dose range): phytotoxicity; also recorded: phytotoxic at higher concentrations
blocking of ABA inhibition of seed germination/greening (Arabidopsis (Col) seeds; 200 nM to 50000 nM, 1 μM ABA, triplicate): blocks ABA's effects at lower concentrations
in vitro activity (literature antagonists) (ABA receptors): modest in vitro activity
block of ABA inhibition of primary root growth (Arabidopsis seedlings): weak effects
block of ABA induced MAPKKK18::Luc gene expression (MAPKKK18 gene expression): less effective
block of thermoinhibition of germination (Arabidopsis seeds): blocks thermoinhibition but its effects decreased at higher concentrations

Molecule: O=C(Cc1cc(C2CC2)c(-n2cc(CNC(=O)c3cnc4ccccc4n3)nn2)c(C2CC2)c1)NC1(C(=O)O)CCCCC1 [48E9T]
blocking of ABA inhibition of cotyledon greening (Arabidopsis (Col) seeds; 1 μM ABA): highly effective in blocking the effects of ABA

Molecule: fluridone
block of thermoinhibition of germination (Arabidopsis seeds): blocks thermoinhibition at all concentrations tested

Molecule: O=C(Cc1cc(C2CC2)c(-n2cc(Cn3c(=O)oc4cc(Cl)ccc43)nn2)c(C2CC2)c1)NC1(C(=O)O)CCCCC1 [1H6T]
phytotoxicity (Arabidopsis (Col) seeds; 30 μM): possible phytotoxicity
blocking of ABA inhibition of cotyledon greening (Arabidopsis (Col) seeds; 1 μM ABA): weakly active
receptor selectivity (pan vs selective antagonist) [2]: pan antagonist

Molecule: O=C(Cc1cc(C2CC2)c(-n2cc(CNC(=O)c3coc(Br)c3)nn2)c(C2CC2)c1)NC1CCC(C(=O)O)CC1 (stereo not shown) [49 Å2T]
blocking of ABA inhibition of cotyledon greening (Arabidopsis (Col) seeds; 1 μM ABA): highly effective in blocking the effects of ABA
block of thermoinhibition of germination (Arabidopsis seeds): block thermoinhibition

From US11641857B2, “Unusually potent ABA receptor pan-antagonists” (The Regents of the University of California, priority 2019, dated 2023)
